{
  "source": "patent US20150285818A1",
  "about": "“Switchable Reporter Enzymes for Homogenous Antibody Detection” (TECHNISCHE UNIVERSITEIT EINDHOVEN, priority 2012, published 2015)",
  "key": {"[1]": {"molecular_target": "anti-HA antibody", "assay": "Peptide binding assay using fluorescence polarization, anti-HA"}, "[2]": {"molecular_target": "anti-HIV1-p17 antibody", "assay": "Peptide binding assay using fluorescence polarization, anti-HIV1-p17"}, "[3]": {"molecular_target": "anti-Dengue-1 antibody", "assay": "Peptide binding assay using fluorescence polarization, anti-Dengue-1", "details": "read-out: Kd, fluorescence polarization titration (Eq. 8); 10 nM fluorescein-labeled peptide titrated with antibody"}, "[4]": {"details": "read-out: Kd, fluorescence polarization titration (Eq. 8), 10 nM fluorescein-labeled short epitope peptide titrated with antibody"}},
  "note": "Values joined by “and” are separate entries in the source; they are usually repeats but may differ in a detail not shown here. Equal values may be shown once. Read-outs that look alike come from different tables or passages of the source. Fluorescein = fluorescein label attached to a cysteine side chain",
  "data": [
    {"substance": "YPYDVPDYA-GGG-C(Fluorescein)", "values": [
      {"measurement": "Kd", "setting": "[1]; read-out: Kd, fluorescence polarization titration (Eq. 8), 2 nM fluorescein-labeled peptide titrated with antibody", "result": "0.00058 ± 0.00022", "unit": "µM"}
    ]},
    {"substance": "ELDRWEKIRLRP-GGG-C(Fluorescein)", "values": [
      {"measurement": "Kd", "setting": "[2]; read-out: Kd, fluorescence polarization titration (Eq. 8), 10 nM fluorescein-labeled peptide titrated with antibody", "result": "0.024 ± 0.003", "unit": "µM"}
    ]},
    {"substance": "YPYDVPDYA", "values": [
      {"measurement": "Kd", "setting": "[1]; read-out: Kd (Kd1) of non-labeled peptide, competition assay (Eqs. 9 and 10), antibody and fluorescein-labeled peptide 10 nM each, titrated with non-labeled peptide", "result": "0.0045 µM and ~0.005 µM"}
    ]},
    {"substance": "WEKIRLR-GGG-C(Fluorescein) (Ac-WEKIRLRGGGC(Fluorescein)-NH2)", "values": [
      {"measurement": "Kd", "setting": "[2]; [4]", "result": "3.3 ± 0.2", "unit": "µM"}
    ]},
    {"substance": "EHKYSWKS-GGG-C(Fluorescein)", "values": [
      {"measurement": "Kd", "setting": "[3]", "result": "0.07 ± 0.013", "unit": "µM"}
    ]},
    {"substance": "WEKIRLR", "values": [
      {"measurement": "Kd", "setting": "[2]; [4]", "result": "~3 µM and 3.3 µM"}
    ]},
    {"substance": "EHKYSWKS", "values": [
      {"measurement": "Kd", "setting": "[3]", "result": 0.07, "unit": "µM"}
    ]},
    {"substance": "ELDRWEKIRLRP", "values": [
      {"measurement": "Kd", "setting": "[2]; read-out: Kd (Kd1) of non-labeled peptide, competition assay (Eqs. 9 and 10), antibody and fluorescein-labeled peptide 100 nM each, titrated with non-labeled peptide", "result": "0.042 ± 0.001", "unit": "µM"}
    ]}
  ]
}
